Columns and labels:
[1] = system: c-Jun-induced migration of bone marrow-derived stromal cells; assay: Transwell migration assay of c-Jun-induced bone marrow-derived stromal cells (in vitro inhibitory screen); type: cell-based, mouse; conditions: bone marrow-derived stromal cells from c-Jun-inducible mice, dox induced
Source text: Functional evaluation of signaling pathways mediating the fibrogenic response. We next wished to assess the functional relevance of the signaling pathway rewiring induced by transcriptional activation of c-Jun. To enable systematic pharmacological interrogation we sought to develop a c-Jun-dependent in vitro assay. We assessed two cell biological parameters in cultured bone marrow-derived stromal cells from c-Jun-inducible mice. First, we assessed cell growth and observed a shortening of the cell doubling time from about […] in control to about 2 days in c-Jun-induced fibroblasts (FIG. 6A). Second, we measured cell migration of bone marrow-derived stromal cells in a transwell migration assay as a functional readout of the c-Jun induction and observed a 100-fold increase in migration at 2 hours and a 1000-fold increase at 24 hours in c-Jun induced cells versus uninduced cells (FIG. 6B).
Given its much greater dynamic range, we then tested a series of small molecule inhibitors in the transwell migration assay. […]
Transwell migration and proliferation assays. For transwell migration assays Costar transwell chambers were used according to the manufacturer's directions and transmigrated adherent cells were fixed and stained and counted by microscopy after periods of 2 hrs and 24 hrs. […]

[2] = system: c-Jun induced mice (bone marrow and skin fibrosis); assay: Systemic c-Jun induced bone marrow and skin fibrosis in vivo; design: species or system mouse; conditions: systemic c-Jun induction, drug i.p.
Source text: Blockade of the VEGF and PI3K pathways reverse marrow and skin fibrosis in vivo. Encouraged by these findings, we sought to evaluate the efficacy of blocking the PI3K-AKT pathway in c-Jun mediated fibrosis in vivo. Wortmannin, a potent PI3K inhibitor, was systemically administered to mice for 14 days that were induced to express c-Jun two days prior to drug. […] Any effects on gastroesophageal or bladder were not assessed as the fibrosis in these organs takes longer to develop. Both Rosa26-rtTA control mice were treated with dox and c-Jun-inducible mice were treated with PBS. No fibrosis developed in either control condition in lung or other organs over the same time span. Thus, the PI3K and VEGFR pathways are critical mediators of c-Jun-induced fibrosis in mice and may be also involved in the development of human fibrosing conditions.
Tissue processing. Animals were sacrificed at times indicated based on an APLAC-approved protocol that includes assessment of morbidity by >10% loss of weight, scruffy appearance and lethargy. […] Images were analyzed in Adobe Photoshop (Adobe Systems, San Jose, CA). […] Flow cytometry was performed on a FACS Aria cytometer (BD Biosciences, San Jose, CA), at least 10,000 events were acquired, and data were analyzed using FlowJo software. […]

## CCN(CC)CCCCNc1ncc2cc(-c3cc(OC)cc(OC)c3)c(NC(=O)NC(C)(C)C)nc2n1 [PD173074]
[1]
  c-Jun-induced migration: abolish
[2]
  bone marrow fibrosis: significantly decreased
  skin fibrosis (dermal skin thickening and collagen deposition): but not skin fibrosis

From patent US11965034B2, “Antifibrotic activity of CD47 blockade in the liver” (The Board of Trustees of the Leland Stanford Junior …, priority 2017, dated 2024)
